Measurements as given in DBAASP.
Converted amounts (≈) assume the structure as drawn. Each block holds one compound with its values, some of them ahead of it.

Assays:
Experiment in all cases: ≥ marks a high value that may be exact or a test limit, other limits are often not marked, values filed in µg/mL are converted to µM
[1] = system: Escherichia coli PCM 2057
[2] = system: Streptococcus pyogenes M1T1 5448
Escherichia coli BL21 = system: Escherichia coli BL21
[3] = system: Pseudomonas aeruginosa PAO1
Salmonella sp. = system: Salmonella sp.
[4] = system: Psychrobacter faecalis X29
[5] = system: Staphylococcus aureus ATCC 2592
[6] = system: Bacillus licheniformis X39
[7] = system: Rhodococcus rhodochrous X15
Bacillus megaterium = system: Bacillus megaterium
Aureobasidium pullulans = system: Aureobasidium pullulans
[8] = system: Candida albicans ATCC 10231
[9] = system: Bacillus subtilis ATCC 23857
[10] = system: Corynebacterium glutamicum ATCC 13032
[11] = system: Staphylococcus aureus ATCC 9144
[12] = system: Escherichia coli ATCC 25922
Micrococcus luteus = system: Micrococcus luteus
[13] = system: Pseudomonas aeruginosa ATCC 27853
[14] = system: Bacillus subtilis IFO 3336
[15] = system: Escherichia coli IFO 3301
[16] = system: Staphylococcus aureus 930918-3
[17] = system: Pseudomonas aeruginosa MR3007
[18] = system: Staphylococcus aureus ATCC 33591
[19] = system: Streptococcus sobrinus ATCC 33478
[20] = system: Streptococcus gordonii Challis DL1
Staphylococcus aureus = system: Staphylococcus aureus
Escherichia coli W3110 = system: Escherichia coli W3110
[21] = system: Streptococcus mitis ATCC 903
[22] = system: Streptococcus mutans UA159
[23] = system: Streptococcus sanguinis NY101
[24] = system: Pseudomonas aeruginosa PAK
Enterococcus faecalis = system: Enterococcus faecalis

Compound: CC[C@H](C)[C@H](NC(=O)[C@H](CCCCN)NC(=O)[C@H](CCCCN)NC(=O)[C@H](Cc1c[nH]c2ccccc12)NC(=O)[C@H](CCC(=O)O)NC(=O)[C@H](CC(N)=O)NC(=O)[C@@H](NC(=O)[C@@H](NC(=O)[C@H](CCCCN)NC(=O)[C@H](CCCCN)NC(=O)[C@H](CC(C)C)NC(=O)[C@H](CCCN=C(N)N)NC(=O)[C@H](CC(N)=O)NC(=O)[C@H](Cc1ccccc1)NC(=O)[C@@H](NC(=O)[C@H](CCCCN)NC(=O)[C@H](CCC(=O)O)NC(=O)[C@@H](NC(=O)CNC(=O)[C@H](C)N)[C@@H](C)O)[C@@H](C)CC)[C@@H](C)O)[C@@H](C)CC)C(=O)N[C@@H](C)C(=O)N[C@@H](CCCCN)C(=O)N[C@@H](CCCN=C(N)N)C(=O)N[C@@H](C)C(=O)N[C@@H](Cc1c[nH]c2ccccc12)C(=O)O [AGTEKIFNRLKKTINEWKKIAKRAW]
MIC [2]: 8 µM (≈ 24.2 µg/mL)
MIC (Escherichia coli BL21): 4 µM (≈ 12.1 µg/mL)
MIC [3]: 16 µM (≈ 48.5 µg/mL)

Compound: CC[C@H](C)[C@H](NC(=O)[C@H](CCCCN)NC(=O)[C@H](CCCCN)NC(=O)CNC(=O)[C@H](CCC(=O)O)NC(=O)[C@H](CCC(N)=O)NC(=O)[C@@H](NC(=O)[C@@H](NC(=O)[C@H](CCCCN)NC(=O)[C@H](CCCCN)NC(=O)[C@H](CC(C)C)NC(=O)[C@H](CCCN=C(N)N)NC(=O)[C@H](CCC(N)=O)NC(=O)[C@H](Cc1ccccc1)NC(=O)[C@@H](NC(=O)[C@H](CCCCN)NC(=O)[C@H](CCC(=O)O)NC(=O)[C@@H](NC(=O)CNC(=O)[C@H](C)N)[C@@H](C)O)[C@@H](C)CC)[C@@H](C)O)[C@@H](C)CC)C(=O)N[C@@H](C)C(=O)N[C@@H](CCCCN)C(=O)N[C@@H](CCCN=C(N)N)C(=O)N[C@@H](Cc1c[nH]c2ccccc12)C(=O)N[C@@H](Cc1c[nH]c2ccccc12)C(=O)O [AGTEKIFQRLKKTIQEGKKIAKRWW]
MIC [2]: 0.125 µM (≈ 0.381 µg/mL)
MIC (Escherichia coli BL21): 0.25 µM (≈ 0.761 µg/mL)
MIC [3]: 16 µM (≈ 48.7 µg/mL)

Compound: CC[C@H](C)[C@H](NC(=O)[C@H](C)NC(=O)CNC(=O)[C@@H](NC(=O)[C@@H](N)Cc1ccccc1)[C@@H](C)CC)C(=O)N[C@@H](C)C(=O)N[C@@H](CCCN=C(N)N)C(=O)N[C@@H](CC(C)C)C(=O)N[C@@H](CC(C)C)C(=O)N[C@@H](CO)C(=O)N[C@@H](CCCCN)C(=O)N[C@H](C(=O)N[C@@H](Cc1ccccc1)C(=O)O)[C@@H](C)CC [FIGAIARLLSKIF]
MIC (Salmonella sp.): ≥ 90.5 µM

Compound: NCCCC[C@H](NC(=O)[C@H](Cc1cnc[nH]1)NC(=O)[C@H](CCCCN)NC(=O)[C@H](Cc1cnc[nH]1)NC(=O)[C@H](CCCCN)NC(=O)[C@H](Cc1cnc[nH]1)NC(=O)[C@H](CCCCN)NC(=O)[C@H](Cc1cnc[nH]1)NC(=O)[C@@H](N)CCCCN)C(=O)N[C@@H](Cc1cnc[nH]1)C(=O)O [KHKHKHKHKH]
MIC [14]: 7.44 µM (≈ 10 µg/mL)
MIC [15]: 7.44 µM (≈ 10 µg/mL)

Compound: CC[C@H](C)[C@H](NC(=O)[C@H](CCCCN)NC(=O)[C@H](CCC(N)=O)NC(=O)CNC(=O)[C@@H](NC(=O)[C@H](CCCCN)NC(=O)[C@H](CCCCN)NC(=O)[C@H](CC(C)C)NC(=O)[C@H](CCCCN)NC(=O)[C@H](CCC(=O)O)NC(=O)[C@H](CCCCN)NC(=O)[C@@H](NC(=O)[C@@H](N)CCCCN)[C@@H](C)CC)[C@@H](C)CC)C(=O)O [KIKEKLKKIGQKI]
MIC [16]: ≥ 160 µM
MIC [17]: ≥ 160 µM
MIC [18]: ≥ 160 µM

Compound: NC(N)=NCCC[C@H](NC(=O)CNC(=O)[C@H](CCCN=C(N)N)NC(=O)CNC(=O)[C@H](CCCN=C(N)N)NC(=O)CNC(=O)[C@H](CCCN=C(N)N)NC(=O)CNC(=O)[C@@H](N)CCCN=C(N)N)C(=O)NCC(=O)O [RGRGRGRGRG]
MIC [14]: ≥ 92.2 µM
MIC [15]: ≥ 92.2 µM

Compound: C[C@@H](O)[C@H](NC(=O)[C@H](Cc1c[nH]c2ccccc12)NC(=O)[C@H](Cc1c[nH]c2ccccc12)NC(=O)[C@H](Cc1ccc(O)cc1)NC(=O)[C@H](CO)NC(=O)[C@H](Cc1c[nH]c2ccccc12)NC(=O)[C@@H](N)Cc1c[nH]c2ccccc12)C(=O)N[C@@H](CCC(N)=O)C(=O)N[C@@H](Cc1c[nH]c2ccccc12)C(N)=O [WWSYWWTQW]
MIC [19]: ≥ 87.5 µM
MIC [20]: ≥ 87.5 µM
MIC (Staphylococcus aureus): > 87.5 µM
MIC (Escherichia coli W3110): ≥ 87.5 µM
MIC [21]: ≥ 87.5 µM
MIC [22]: ≥ 87.5 µM
MIC [23]: ≥ 87.5 µM
MIC [24]: ≥ 87.5 µM
MIC (Enterococcus faecalis): ≥ 87.5 µM

Second part, the compound after the results:

MIC [1]: ≥ 520 µM
Compound: CC[C@H](C)[C@H](NC(=O)[C@H](CC(N)=O)NC(=O)[C@H](C)NC(=O)[C@H](C)N)C(=O)N1CCC[C@H]1C(=O)N[C@@H](Cc1ccccc1)C(=O)N[C@@H](CCCCN)C(=O)N[C@H](C(=O)N[C@@H](Cc1cnc[nH]1)C(=O)N[C@@H](Cc1ccccc1)C(=O)N[C@@H](CCCN=C(N)N)C(=O)N[C@H]1CSSC[C@@H](C(=O)O)NC(=O)[C@H](Cc2ccccc2)NC(=O)[C@H](C)NC(=O)[C@H](C)NC(=O)[C@H](CCCCN)NC1=O)C(C)C [AANIPFKVHFRCKAAFC]

MIC [4]: 4.76 µM (≈ 12.5 µg/mL)
MIC [5]: 2.4 µM (≈ 6.3 µg/mL)
MIC [6]: 9.51 µM (≈ 25 µg/mL)
MIC [7]: 1.18 µM (≈ 3.1 µg/mL)
Compound: CC[C@H](C)[C@@H]1NC(=O)[C@H](CCCCN)NC(=O)[C@@H](NC(=O)[C@@H](NC(=O)[C@@H](NC(=O)[C@H](CCC(N)=O)NC(=O)[C@@H]2CCCN2C(=O)[C@H](CC(C)C)NC(=O)[C@H](Cc2ccccc2)NC(=O)[C@H](CC(N)=O)NC(=O)[C@H](C)NC(=O)[C@@H](NC(=O)[C@@H](NC(=O)CNC(=O)[C@H](C)NC(=O)[C@H](CC(C)C)NC(=O)[C@H](CC(C)C)NC(=O)[C@@H]2CCCN2C(=O)[C@H](CC(C)C)NC(=O)[C@@H](N)Cc2ccccc2)C(C)C)C(C)C)[C@@H](C)CC)[C@@H](C)CC)CSSC[C@@H](C(=O)O)NC(=O)[C@H](CCCCN)NC(=O)[C@H](CCCN=C(N)N)NC(=O)[C@H](C)NC1=O [FLPLLAGVVANFLPQIICKIARKC]

MIC (Bacillus megaterium): 3.29 µM (≈ 3.9 µg/mL)
MIC (Aureobasidium pullulans): ≥ 52.7 µM
MIC [8]: 105 µM (≈ 125 µg/mL)
MIC [9]: ≥ 211 µM
MIC [10]: 13.2 µM (≈ 15.6 µg/mL)
MIC [11]: ≥ 211 µM
MIC [12]: > 211 µM
MIC (Micrococcus luteus): ≥ 211 µM
MIC [13]: > 211 µM
Compound: C[C@H](NC(=O)[C@H](CCCCN)NC(=O)[C@H](Cc1c[nH]c2ccccc12)NC(=O)CNC(=O)[C@H](Cc1c[nH]c2ccccc12)NC(=O)[C@@H]1CCCN1C(=O)[C@H](CCCCN)NC(=O)[C@H](CCCCN)NC(=O)CN)C(=O)N[C@@H](CCCCN)C(N)=O [GKKPWGWKAK]

MIC [19]: ≥ 438 µM
MIC [20]: ≥ 438 µM
MIC (Staphylococcus aureus): > 438 µM
MIC (Escherichia coli W3110): ≥ 438 µM
MIC [21]: ≥ 438 µM
MIC [22]: ≥ 109 µM
MIC [23]: ≥ 438 µM
MIC [24]: ≥ 438 µM
MIC (Enterococcus faecalis): ≥ 438 µM
Compound: CC[C@H](C)[C@H](NC(=O)[C@H](Cc1cnc[nH]1)NC(=O)[C@H](CCCCN)NC(=O)[C@@H](NC(=O)[C@@H](N)CC(C)C)[C@@H](C)CC)C(=O)N[C@@H](CC(C)C)C(=O)N[C@@H](Cc1cnc[nH]1)C(=O)N[C@@H](CCCN=C(N)N)C(=O)N[C@@H](CC(C)C)C(N)=O [LIKHILHRL]
